Source: patent US20160102073A1, “2-HYDROXYMETHYL-SUBSTITUTED OREXIN RECEPTOR ANTAGONISTS” (MERCK SHARP & DOHME CORP., priority 2013, published 2016)
pIC50: −log10 of the molar value.

What was measured:
[1] = molecular target: T1, human orexin-2 receptor (hOX2R) (Homo sapiens, UniProt O43614); assay: FLIPR Ca2+ Flux Assay, CHO cells expressing hOX2R; type: cell-based; conditions: agonist 70 pM Ala-6,12 orexin-A
T1 construct: expressed in transfected cells; host or cells: Chinese hamster ovary (CHO) cells, grown under G418 selection
T1 sequence (O43614 1-444): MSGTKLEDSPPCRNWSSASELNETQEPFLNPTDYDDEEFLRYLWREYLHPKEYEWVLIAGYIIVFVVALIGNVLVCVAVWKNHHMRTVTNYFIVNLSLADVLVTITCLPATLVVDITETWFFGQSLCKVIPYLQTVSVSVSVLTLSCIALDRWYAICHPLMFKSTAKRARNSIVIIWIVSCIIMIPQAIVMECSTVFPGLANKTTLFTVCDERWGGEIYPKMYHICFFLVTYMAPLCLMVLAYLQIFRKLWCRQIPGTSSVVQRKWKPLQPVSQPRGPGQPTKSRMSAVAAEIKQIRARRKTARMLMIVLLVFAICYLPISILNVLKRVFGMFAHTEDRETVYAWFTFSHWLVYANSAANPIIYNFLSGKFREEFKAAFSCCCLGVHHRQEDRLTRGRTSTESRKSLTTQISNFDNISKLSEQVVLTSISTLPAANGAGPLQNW

[2] = molecular target: T2, human orexin-1 receptor (hOX1R) (Homo sapiens, UniProt O43613); assay: FLIPR Ca2+ Flux Assay, CHO cells expressing hOX1R; type: cell-based; conditions: agonist 70 pM Ala-6,12 orexin-A
T2 construct: expressed in transfected cells; host or cells: Chinese hamster ovary (CHO) cells, grown under G418 selection
T2 sequence (O43613 1-425): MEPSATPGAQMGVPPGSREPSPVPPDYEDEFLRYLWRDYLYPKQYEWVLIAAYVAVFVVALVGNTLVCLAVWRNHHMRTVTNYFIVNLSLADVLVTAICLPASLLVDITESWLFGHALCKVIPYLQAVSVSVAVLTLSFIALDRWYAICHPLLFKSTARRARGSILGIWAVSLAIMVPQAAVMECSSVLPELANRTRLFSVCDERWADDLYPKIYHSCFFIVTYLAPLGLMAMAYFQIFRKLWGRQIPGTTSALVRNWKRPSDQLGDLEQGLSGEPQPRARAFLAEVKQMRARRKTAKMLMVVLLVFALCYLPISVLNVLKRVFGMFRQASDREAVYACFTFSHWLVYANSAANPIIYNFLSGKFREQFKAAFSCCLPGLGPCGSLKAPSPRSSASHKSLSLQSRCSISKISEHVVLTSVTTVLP

SMILES	pIC50 [1]	pIC50 [2]
C[C@@H]1CC[C@@H](Oc2ncccc2C(C)(C)O)CN1C(=O)c1ccsc1-c1ncccn1 [Example 19, 2-[2-({(3R,6R)-6-Methyl-1-[(2-pyrimidin-2-ylthiophen-3-yl)carbonyl]piperidin-3-yl}oxy)pyridin-3-yl]propan-2-ol]	7.89	7.92
C[C@@H]1CC[C@@H](Oc2ncccc2C(C)(C)O)CN1C(=O)c1cccc(F)c1-c1ncccn1 [Example 20, 2-[2-({(3R,6R)-1-[(3-fluoro-2-pyrimidin-2-yl-phenyl)carbonyl]-6-methyl-piperidin-3-yl}oxy)pyridin-3-yl]propan-2-ol]	7.01	6.22
C[C@@H]1CC[C@@H](Oc2ncccc2C(C)(C)O)CN1C(=O)c1ccccc1C1CCC1 [Example 9, 2-[2-({(3R,6R)-1-[(2-cyclobutylphenyl)carbonyl]-6-methylpiperidin-3-yl}oxy)pyridin-3-yl]propan-2-ol]	7.27	7.05

Second part, the molecule after the results:

pIC50 [1]	pIC50 [2]	SMILES
7.74	7.09	C[C@@H]1CC[C@@H](Oc2nccc(C(F)(F)F)c2CO)CN1C(=O)c1ccccc1-n1nccn1 [Example 44, [2-{[(3R,6R)-6-methyl-1-{[2-(2H-1,2,3-triazol-2-yl)phenyl]carbonyl}piperidin-3-yl]oxy}-4-(trifluoromethyl)pyridin-3-yl] methanol]
7.57	6.64	CC[C@H](O)c1cccnc1O[C@@H]1CC[C@@H](C)N(C(=O)c2ccccc2-n2nccn2)C1 [Example 32, (1S)-1-(2-{[(3R,6R)-6-methyl-1-{[2-(2H-1,2,3-triazol-2-yl)phenyl]carbonyl}piperidin-3-yl]oxy}pyridin-3-yl)propan-1-ol]
7.62	6.04	C[C@@H]1CC[C@@H](Oc2ncccc2[C@H](O)C(F)(F)F)CN1C(=O)c1ccccc1-n1nccn1 [Example 36, (1S)-2,2,2-Trifluoro-1-(2-{[(3R,6R)-6-methyl-1-{[2-(2H-1,2,3-triazol-2-yl)phenyl]carbonyl}piperidin-3-yl]oxy}pyridin-3-yl)ethanol]
7.10	7.03	COc1ccnc(O[C@@H]2CC[C@@H](C)N(C(=O)c3ccccc3-n3nccn3)C2)c1C(C)(C)O (single isomer, unassigned) [Example 28]
